Test results taken from patent US7671056B2, “Piperazine-piperidine antagonists and agonists of the 5-HT1A receptor” (Wyeth LLC, priority 2005, dated 2010).

Key:
human 5-HT1A receptor [1] = biological target: T1, human 5-HT1A receptor (Homo sapiens, UniProt P08908); test: Radioligand binding with [3H]8-OH-DPAT on membranes of 5-HT1A.CHO cells; details: [3H]8-OH-DPAT 1.5 nM, 5-HT1A.CHO cell membranes; read-out: 5-HT1A Affinity Ki
T1 construct: expressed in transfected cells
T1 sequence (P08908 1-422): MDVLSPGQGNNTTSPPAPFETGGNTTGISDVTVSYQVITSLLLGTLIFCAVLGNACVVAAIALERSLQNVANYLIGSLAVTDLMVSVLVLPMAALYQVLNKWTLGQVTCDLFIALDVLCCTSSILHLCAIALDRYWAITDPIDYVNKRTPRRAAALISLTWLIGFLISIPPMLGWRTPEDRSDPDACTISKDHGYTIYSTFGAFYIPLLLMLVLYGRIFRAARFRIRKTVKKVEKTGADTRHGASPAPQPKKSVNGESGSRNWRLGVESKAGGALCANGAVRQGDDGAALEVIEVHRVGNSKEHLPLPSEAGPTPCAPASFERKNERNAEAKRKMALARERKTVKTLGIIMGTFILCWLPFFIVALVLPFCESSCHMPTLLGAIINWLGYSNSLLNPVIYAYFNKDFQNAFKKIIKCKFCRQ
Experimental: The PCR cloning of the human 5-HT1A receptor subtype from a human genomic library has been described previously (Chanda et al., Mol. Pharmacol., 43:516 (1993)). A stable Chinese hamster ovary cell line expressing the human 5-HT1A receptor subtype (5-HT1A.CHO cells) was employed throughout this study. Cells were maintained in DMEM supplemented with 10% fetal calf serum, non-essential amino acids and penicillin/streptomycin. Radioligand binding assays were performed as described in Dunlop, J. et al., J. Pharmacol. and Toxicol. Methods 40: 47-55 (1998), which is incorporated by reference. Cells were grown to 95-100% confluency as a monolayer before membranes were harvested for binding studies. Cells were gently scraped from the culture plates, transferred to centrifuge tubes, and washed twice by centrifugation (2000 rpm for 10 min., 4° C.) in buffer (50 mM Tris; pH 7.5). The resulting pellets were aliquoted and placed at −80° C. On the day of assay, the cells were thawed on ice, and resuspended in buffer. Studies were conducted using [^3H]8-OH-DPAT as the radioligand. The binding assay was performed in 96 well microtiter plates in a final total volume of 250 μL of buffer. Competition experiments were performed by using seven different concentrations of unlabelled drug and a final ligand concentration of 1.5 nM. Non-specific binding was determined in the presence of 10 μM 5HT. Saturation analysis was conducted by using [^3H]8-OH-DPAT at concentrations ranging from 0.3-30 nM. Following a 30 minute incubation at room temperature, the reaction was terminated by the addition of ice cold buffer and rapid filtration using a M-96 Brandel Cell Harvester (Gaithersburg, Md.) through a GF/B filter presoaked for 30 minutes in 0.5% polyethyleneimine. Table 1 provides Ki values for the tested compounds.

human 5-HT1A receptor [2] = biological target: T1, human 5-HT1A receptor; test: cAMP measurements, agonist mode: inhibition of forskolin-induced increase in cAMP; assay type: cell-based; details: forskolin 1 uM, 5-HT1A.CHO cells
Experimental: The PCR cloning of the human 5-HT1A receptor subtype from a human genomic library has been described previously (Chanda et al., Mol. Pharmacol., 43:516 (1993)). A stable Chinese hamster ovary cell line expressing the human 5-HT1A receptor subtype (5-HT1A.CHO cells) was employed throughout this study. Cells were maintained in DMEM supplemented with 10% fetal calf serum, non-essential amino acids and penicillin/streptomycin.
Measurements were performed as described in Dunlop, J. et al., supra. Assays were performed by incubating the cells with DMEM containing 25 mM HEPES, 5 mM theophylline and 10 μM pargyline for a period of 20 minutes at 37° C. Functional activity was assessed by treating the cells with forskolin (1 uM final concentration) followed immediately by test compound (6 different concentrations) for an additional 10 minutes at 37° C. In separate experiments, 6 concentrations of antagonist were preincubated for 20 min prior to the addition of 10 nM 8-OH-DPAT and forskolin. The reaction was terminated by removal of the media and addition of 0.5 ml ice cold assay buffer. Plates were stored at −20° C. prior to assessment of cAMP formation by a cAMP SPA assay (Amersham). […]

[3] = test system: sexually experienced male rats (Sprague-Dawley rats); test: Animal model of SSRI-induced sexual dysfunction (non-contact penile erections); assay type: in vivo, rat
Experimental: The animal model is based on the finding that sexually experienced rats that are administered an SSRI, a drug used to treat certain conditions such as depression, display a reduction in the number of non-contact penile erections. SSRI treatment is associated with sexual dysfunction in human subjects. In general, the animal model exposes sexually experienced male rats (Sprague-Dawley rats) to female rats in estrous in a novel testing arena that is not the regular housing environment. The number of non-contact penile erections is assayed over a specified test period, e.g., 30 minutes (Sukoff, Rizzo, et al., 2006, Society for Neurosci. Abstr. 559.4; U.S. Application Ser. No. 60/682,3379, filed May 19, 2005). In the experiments described herein, animals were generally treated either with 0.9% saline (vehicle) or a drug (i.e., a compound of the invention) in the vehicle.
The ability of fluoxetine, an SSRI associated with sexual dysfunction in humans, to cause sexual dysfunction in the animal model was tested by examining a 10 mg/kg dose of fluoxetine or vehicle alone (0.9% saline), each administered intraperitoneally, once daily for 14 days, on the number of non-contact penile erections over a 30 minute trial period.
To examine the time course of the effects of a drug that causes sexual dysfunction, rats that were handled and tested as described above were treated acutely: rats were treated with vehicle for 6 days, and on the test day (day 7) instead of vehicle, the animals received a single dose of fluoxetine in vehicle (i.p.). For a subchronic (7 day) study, fluoxetine was administered each day for 7 days and the animals were evaluated on test day 7. For the chronic 14 day study, fluoxetine was administered each day for 14 days and the animals were tested on day 14. Each fluoxetine dose was 10 mg/kg in vehicle and was delivered i.p. on each of the test days as described above. The testing session for each section of the study was begun immediately following compound administration and the behavior observed for 30 minutes immediately following the drug administration. […]

male Sprague-Dawley rats = test: In vivo microdialysis of frontal cortex 5-HT (enhancement of SSRI activity); parameters: species or system rat; details: acute fluoxetine alone, 30 mg/kg s.c.
Experimental: The ability of the compounds of this invention to reduce time for onset of action of the representative SSRI fluoxetine was assessed using in vivo microdialysis. Using 2-3% halothane anesthesia (Fluothane; Zeneca, Cheshire, UK), male Sprague-Dawley rats (280-350 g; Charles River, Wilmington, Mass.) were secured in a stereotaxic frame with ear and incisor bars (David Kopf, Tujunga, Calif.) while a microdialysis guide cannula (CMA/12, CMA Microdialysis, Sweden) was directed above the dorsal lateral frontal cortex (A/P+3.2 mm, M/L−3.5 mm, D/L−1.3 mm). Coordinates were taken with a flat skull using the rat brain atlas of Paxinos and Watson (1986). […]
For in vivo neurochemical experiments, a microdialysis probe (CMA/12; active membrane length 2 mm; OD 0.5 mm; 20 kD cut-off) was pre-washed with artificial CSF (aCSF; 125 mM NaCl, 3 mM KCl, 0.75 mM MgSO4 and 1.2 mM CaCl2, pH 7.4) according to the manufacturers specifications. […] Subsequent microdialysis samples were collected for 3 h post-injection and analyzed for 5-HT content by high performance liquid chromatography (HPLC). […] Subsequent sample values were expressed as a percent change from this preinjection baseline value (or % change from baseline). Neurochemical data, excluding preinjection values, were analyzed by a two-way analysis of variance (ANOVA) with repeated measures (time). […]

Row | Structure (SMILES) | Ki (human 5-HT1A receptor [1]) [µM] | EC50 (human 5-HT1A receptor [2]) [µM] | sexual function (number of non-contact penile erections over 30 minutes) ([3]; 10 mg/kg i.p. each day for 7 days (sub-chronic)) | sexual function (number of non-contact penile erections over 30 minutes) ([3]; 10 mg/kg i.p. once daily for 14 days (chronic), vs vehicle) | sexual function (number of non-contact penile erections over 30 minutes) ([3]; 10 mg/kg i.p. once daily for 14 days (chronic), vs vehicle, listed as Fluoxetine) | frontal cortex serotonin levels (male Sprague-Dawley rats)
1 | COc1cc(N2CCN(C3CCN(c4cccc5cc(C(F)(F)F)cnc45)CC3)CC2)c2ncccc2c1 [L, 8-{4-[4-(6-Methoxyquinolin-8-yl)piperazin-1-yl]piperidin-1-yl}-3-(trifluoromethyl)quinoline] | 0.0012 | 0.0295 | – | – | – | –
2 | CNCCC(Oc1ccc(C(F)(F)F)cc1)c1ccccc1 (stereo not drawn) [fluoxetine] | – | – | significant increase in sexual dysfunction | significant increase in sexual dysfunction | decrease in sexual function | did not increase serotonin levels
